Results as given in paper PMC9604325 (International Journal of Molecular Sciences, 2022).

Columns and labels:
HT-22 cells [1] = assay: Mitochondrial membrane potential, TMRE assay; assay type: cell-based, mouse; details: 2 μM Aβ(1-42), 2 h or 5 h; p > 0.05
Experimental: Mitochondrial depolarization was monitored with the fluorescent dye TMRE, as previously described, with small changes. […] Then, the HT-22 culture dishes were placed in the thermostatic plate at 37 °C of the inverted epifluorescence microscope and the fluorescence kinetic was recorded at 556 nm excitation filter and a dichroic mirror of 580 nm with an emission filter of 590 nm and a time of exposure 0.01 s. To assess the level of the mitochondrial membrane depolarization, 5 μM of a potent mitochondrial oxidative phosphorylation uncoupler FCCP was added to the medium. The region of interest (ROI) tool of the HCImage software was used for the quantitative analysis. The average fluorescence intensity readings per pixel in the HT-22 cells were taken from several fields for a total number of 80 cells.

STIM1 = target: T1, STIM1 (Mus musculus, UniProt P70302); assay: Co-immunoprecipitation of STIM1 with anti-Aβ antibody from HT-22 lysates, Western blot; assay type: binding; details: 250 nM Aβ(1-42), HT-22 cell lysates
T1 construct: endogenous in cells; host or cells: HT-22 cell lysate
Experimental: The HT-22 cells were lysed in a buffer: 25 mM of Tris(hydroxymethyl)aminomethane–HCl, pH 7.4, 150 mM of NaCl, 5 mM of ethylenediaminetetraacetic acid, 50 mM of NaF, 5 mM of NaVO3, 0.25% of Triton X-100, and 5 mM of methyl-β-cyclodextrin, supplemented with 1× […]^TM protease inhibitor cocktail. After cell centrifugation at 2000× g for 2 min at 4 °C, the supernatant was collected and supplemented with 50% glycerol. Bradford’s method was used to measure the protein concentration in HT22 lysates using the bovine serum albumin as the standard. The co-immunoprecipitation was carried out using the protein A/G PLUS-Agarose, following the instructions described by the manufacturer in the technical data sheet. […] Then, 10 μg of mouse anti-β-amyloid antibody was added to the Eppendorf tube and incubated for 1 h at 4 °C with continuous gentle shaking. Afterward, 50 μL of protein A/G PLUS-Agarose was added and incubated overnight at 4 °C with continuous shaking. […] The agarose beads were precipitated by centrifugation at 2500× g for 5 min at 4 °C in a refrigerated Eppendorf microcentrifuge. […] A centrifugation step (2500× g, 5 min at 4 °C) was performed in a refrigerated Eppendorf microcentrifuge after each washing step. […]

RyR = target: T2, RyR (Mus musculus, UniProt E9Q401); assay: Tg-induced Ca2+ release from stores in Fluo3-loaded HT-22 cells with the RyR antagonist ryanodine; assay type: cell-based; details: 2 μM Aβ(1-42) 2 h plus 100 μM ryanodine
T2 construct: incubation with 100 μM of the RyR antagonist ryanodine for 1 h in the HT-22 culture media; endogenous in cells; host or cells: HT-22 (mouse hippocampal cell line)
Experimental: (§1) Cytosolic Ca^2+ imaging was assessed in the HT-22 cell culture with the fluorescent probe Fluo3-AM. […] The untread cells were regarded as the controls. […] Then, the cells were washed once with 1 mL of MLocke’s K5 buffer, and the 35 mm culture dishes were placed in the thermostatic plate at 37 °C (Warner Instrument Co., Hamden, CT, USA) of the Nikon Diaphot 300 inverted epifluorescence microscope (Tokyo, Japan) with an NCF Plan ELWD 40× objective (the pixel size of the images shown in this work was 0.2 μm). The images of the Fluo3-loaded cells were acquired with the Hamamatsu Orca-R^2 CCD camera (binning mode 2 × 2) with an excitation filter of 470 nm, a dichroic mirror of 510 nm with an emission filter of 520 nm, and a 0.3 s exposure time. […] The depletion of the Ca^2+ stores was triggered by adding 2 μM of the SERCA pump blocker Tg plus ethylene glycol tetraacetic acid (1 mM), in a Ca^2+-free Mlocke’s K5 buffer. Then, the SOCE was measured after the addition of 3 mM of CaCl2 to the Tg-containing medium. […] The activity of the RyR Ca^2+-leak channels was evaluated by incubation with 100 μM of the RyR antagonist ryanodine for 1 h in the HT-22 culture media. In all experiments with antagonists, we performed the respective dimethylsulfoxide vehicle controls.

PDI = test system: PDI; parameters: method as in earlier work; details: up to 200 nM Aβ(1-42), HT-22 cell lysates, isomerase assay of ref 67; cited from earlier work
HT-22 cells [2] = assay: Cellular GSH level, monochlorobimane fluorescence; assay type: cell-based, mouse; details: 2 μM Aβ(1-42), 2 h or 5 h; 10 μM MCB
Experimental: The cellular GSH level was monitored with MCB using fluorescence microscopy, as described in our previous work. Images were acquired with a Nikon Diaphot 300 epifluorescence microscope, with an excitation filter of 380 nm.
(A) Representative microscopy images
(B) Means of the average fluorescence intensity
Supplementary Figure S5. GSH levels are not altered after 2 h […]
37 ᵒC were washed once with MLocke’s K5 buffer and the plates were placed in the holder of the fluorescence microscope (37 ᵒC) for cell imaging before and after the addition of 10 μM MCB as described in the Material and Methods section.
Panel A: representative bright field and blue fluorescence images
(GS-MCB) acquired 2 min after MCB addition of untreated cells […]
exposure was 0.7 s and the scale bar inserted = 20 μm. Panel B: means of fluorescence intensity per pixel of HT-22 cells after 2 min of incubation with MCB (10 μM). The results shown are the […]
in GSH levels between untreated cells (control) and cells treated […]
(also on this page, place not known: 0 100 200 300 400 Fluorescenece (Intensity/pixel) µM Aβ(1-42) µM Aβ(1-42) n.s. n.s. Bright Blue Fluorescence Control 2h IJMS-1941218 field 2 2 of MCB 2 2 h 5 h) […]

[3] = test system: mature cerebellar granule neurons; details: 2 h of incubation; cited from earlier work
[4] = test system: store-operated calcium entry (SOCE) in HT-22 cells; assay: SOCE Ca2+ imaging in Fluo3-loaded HT-22 cells (Tg-induced store release, then Ca2+ entry); assay type: cell-based, mouse
Experimental: as §1

T2 sequence (E9Q401 whole entry): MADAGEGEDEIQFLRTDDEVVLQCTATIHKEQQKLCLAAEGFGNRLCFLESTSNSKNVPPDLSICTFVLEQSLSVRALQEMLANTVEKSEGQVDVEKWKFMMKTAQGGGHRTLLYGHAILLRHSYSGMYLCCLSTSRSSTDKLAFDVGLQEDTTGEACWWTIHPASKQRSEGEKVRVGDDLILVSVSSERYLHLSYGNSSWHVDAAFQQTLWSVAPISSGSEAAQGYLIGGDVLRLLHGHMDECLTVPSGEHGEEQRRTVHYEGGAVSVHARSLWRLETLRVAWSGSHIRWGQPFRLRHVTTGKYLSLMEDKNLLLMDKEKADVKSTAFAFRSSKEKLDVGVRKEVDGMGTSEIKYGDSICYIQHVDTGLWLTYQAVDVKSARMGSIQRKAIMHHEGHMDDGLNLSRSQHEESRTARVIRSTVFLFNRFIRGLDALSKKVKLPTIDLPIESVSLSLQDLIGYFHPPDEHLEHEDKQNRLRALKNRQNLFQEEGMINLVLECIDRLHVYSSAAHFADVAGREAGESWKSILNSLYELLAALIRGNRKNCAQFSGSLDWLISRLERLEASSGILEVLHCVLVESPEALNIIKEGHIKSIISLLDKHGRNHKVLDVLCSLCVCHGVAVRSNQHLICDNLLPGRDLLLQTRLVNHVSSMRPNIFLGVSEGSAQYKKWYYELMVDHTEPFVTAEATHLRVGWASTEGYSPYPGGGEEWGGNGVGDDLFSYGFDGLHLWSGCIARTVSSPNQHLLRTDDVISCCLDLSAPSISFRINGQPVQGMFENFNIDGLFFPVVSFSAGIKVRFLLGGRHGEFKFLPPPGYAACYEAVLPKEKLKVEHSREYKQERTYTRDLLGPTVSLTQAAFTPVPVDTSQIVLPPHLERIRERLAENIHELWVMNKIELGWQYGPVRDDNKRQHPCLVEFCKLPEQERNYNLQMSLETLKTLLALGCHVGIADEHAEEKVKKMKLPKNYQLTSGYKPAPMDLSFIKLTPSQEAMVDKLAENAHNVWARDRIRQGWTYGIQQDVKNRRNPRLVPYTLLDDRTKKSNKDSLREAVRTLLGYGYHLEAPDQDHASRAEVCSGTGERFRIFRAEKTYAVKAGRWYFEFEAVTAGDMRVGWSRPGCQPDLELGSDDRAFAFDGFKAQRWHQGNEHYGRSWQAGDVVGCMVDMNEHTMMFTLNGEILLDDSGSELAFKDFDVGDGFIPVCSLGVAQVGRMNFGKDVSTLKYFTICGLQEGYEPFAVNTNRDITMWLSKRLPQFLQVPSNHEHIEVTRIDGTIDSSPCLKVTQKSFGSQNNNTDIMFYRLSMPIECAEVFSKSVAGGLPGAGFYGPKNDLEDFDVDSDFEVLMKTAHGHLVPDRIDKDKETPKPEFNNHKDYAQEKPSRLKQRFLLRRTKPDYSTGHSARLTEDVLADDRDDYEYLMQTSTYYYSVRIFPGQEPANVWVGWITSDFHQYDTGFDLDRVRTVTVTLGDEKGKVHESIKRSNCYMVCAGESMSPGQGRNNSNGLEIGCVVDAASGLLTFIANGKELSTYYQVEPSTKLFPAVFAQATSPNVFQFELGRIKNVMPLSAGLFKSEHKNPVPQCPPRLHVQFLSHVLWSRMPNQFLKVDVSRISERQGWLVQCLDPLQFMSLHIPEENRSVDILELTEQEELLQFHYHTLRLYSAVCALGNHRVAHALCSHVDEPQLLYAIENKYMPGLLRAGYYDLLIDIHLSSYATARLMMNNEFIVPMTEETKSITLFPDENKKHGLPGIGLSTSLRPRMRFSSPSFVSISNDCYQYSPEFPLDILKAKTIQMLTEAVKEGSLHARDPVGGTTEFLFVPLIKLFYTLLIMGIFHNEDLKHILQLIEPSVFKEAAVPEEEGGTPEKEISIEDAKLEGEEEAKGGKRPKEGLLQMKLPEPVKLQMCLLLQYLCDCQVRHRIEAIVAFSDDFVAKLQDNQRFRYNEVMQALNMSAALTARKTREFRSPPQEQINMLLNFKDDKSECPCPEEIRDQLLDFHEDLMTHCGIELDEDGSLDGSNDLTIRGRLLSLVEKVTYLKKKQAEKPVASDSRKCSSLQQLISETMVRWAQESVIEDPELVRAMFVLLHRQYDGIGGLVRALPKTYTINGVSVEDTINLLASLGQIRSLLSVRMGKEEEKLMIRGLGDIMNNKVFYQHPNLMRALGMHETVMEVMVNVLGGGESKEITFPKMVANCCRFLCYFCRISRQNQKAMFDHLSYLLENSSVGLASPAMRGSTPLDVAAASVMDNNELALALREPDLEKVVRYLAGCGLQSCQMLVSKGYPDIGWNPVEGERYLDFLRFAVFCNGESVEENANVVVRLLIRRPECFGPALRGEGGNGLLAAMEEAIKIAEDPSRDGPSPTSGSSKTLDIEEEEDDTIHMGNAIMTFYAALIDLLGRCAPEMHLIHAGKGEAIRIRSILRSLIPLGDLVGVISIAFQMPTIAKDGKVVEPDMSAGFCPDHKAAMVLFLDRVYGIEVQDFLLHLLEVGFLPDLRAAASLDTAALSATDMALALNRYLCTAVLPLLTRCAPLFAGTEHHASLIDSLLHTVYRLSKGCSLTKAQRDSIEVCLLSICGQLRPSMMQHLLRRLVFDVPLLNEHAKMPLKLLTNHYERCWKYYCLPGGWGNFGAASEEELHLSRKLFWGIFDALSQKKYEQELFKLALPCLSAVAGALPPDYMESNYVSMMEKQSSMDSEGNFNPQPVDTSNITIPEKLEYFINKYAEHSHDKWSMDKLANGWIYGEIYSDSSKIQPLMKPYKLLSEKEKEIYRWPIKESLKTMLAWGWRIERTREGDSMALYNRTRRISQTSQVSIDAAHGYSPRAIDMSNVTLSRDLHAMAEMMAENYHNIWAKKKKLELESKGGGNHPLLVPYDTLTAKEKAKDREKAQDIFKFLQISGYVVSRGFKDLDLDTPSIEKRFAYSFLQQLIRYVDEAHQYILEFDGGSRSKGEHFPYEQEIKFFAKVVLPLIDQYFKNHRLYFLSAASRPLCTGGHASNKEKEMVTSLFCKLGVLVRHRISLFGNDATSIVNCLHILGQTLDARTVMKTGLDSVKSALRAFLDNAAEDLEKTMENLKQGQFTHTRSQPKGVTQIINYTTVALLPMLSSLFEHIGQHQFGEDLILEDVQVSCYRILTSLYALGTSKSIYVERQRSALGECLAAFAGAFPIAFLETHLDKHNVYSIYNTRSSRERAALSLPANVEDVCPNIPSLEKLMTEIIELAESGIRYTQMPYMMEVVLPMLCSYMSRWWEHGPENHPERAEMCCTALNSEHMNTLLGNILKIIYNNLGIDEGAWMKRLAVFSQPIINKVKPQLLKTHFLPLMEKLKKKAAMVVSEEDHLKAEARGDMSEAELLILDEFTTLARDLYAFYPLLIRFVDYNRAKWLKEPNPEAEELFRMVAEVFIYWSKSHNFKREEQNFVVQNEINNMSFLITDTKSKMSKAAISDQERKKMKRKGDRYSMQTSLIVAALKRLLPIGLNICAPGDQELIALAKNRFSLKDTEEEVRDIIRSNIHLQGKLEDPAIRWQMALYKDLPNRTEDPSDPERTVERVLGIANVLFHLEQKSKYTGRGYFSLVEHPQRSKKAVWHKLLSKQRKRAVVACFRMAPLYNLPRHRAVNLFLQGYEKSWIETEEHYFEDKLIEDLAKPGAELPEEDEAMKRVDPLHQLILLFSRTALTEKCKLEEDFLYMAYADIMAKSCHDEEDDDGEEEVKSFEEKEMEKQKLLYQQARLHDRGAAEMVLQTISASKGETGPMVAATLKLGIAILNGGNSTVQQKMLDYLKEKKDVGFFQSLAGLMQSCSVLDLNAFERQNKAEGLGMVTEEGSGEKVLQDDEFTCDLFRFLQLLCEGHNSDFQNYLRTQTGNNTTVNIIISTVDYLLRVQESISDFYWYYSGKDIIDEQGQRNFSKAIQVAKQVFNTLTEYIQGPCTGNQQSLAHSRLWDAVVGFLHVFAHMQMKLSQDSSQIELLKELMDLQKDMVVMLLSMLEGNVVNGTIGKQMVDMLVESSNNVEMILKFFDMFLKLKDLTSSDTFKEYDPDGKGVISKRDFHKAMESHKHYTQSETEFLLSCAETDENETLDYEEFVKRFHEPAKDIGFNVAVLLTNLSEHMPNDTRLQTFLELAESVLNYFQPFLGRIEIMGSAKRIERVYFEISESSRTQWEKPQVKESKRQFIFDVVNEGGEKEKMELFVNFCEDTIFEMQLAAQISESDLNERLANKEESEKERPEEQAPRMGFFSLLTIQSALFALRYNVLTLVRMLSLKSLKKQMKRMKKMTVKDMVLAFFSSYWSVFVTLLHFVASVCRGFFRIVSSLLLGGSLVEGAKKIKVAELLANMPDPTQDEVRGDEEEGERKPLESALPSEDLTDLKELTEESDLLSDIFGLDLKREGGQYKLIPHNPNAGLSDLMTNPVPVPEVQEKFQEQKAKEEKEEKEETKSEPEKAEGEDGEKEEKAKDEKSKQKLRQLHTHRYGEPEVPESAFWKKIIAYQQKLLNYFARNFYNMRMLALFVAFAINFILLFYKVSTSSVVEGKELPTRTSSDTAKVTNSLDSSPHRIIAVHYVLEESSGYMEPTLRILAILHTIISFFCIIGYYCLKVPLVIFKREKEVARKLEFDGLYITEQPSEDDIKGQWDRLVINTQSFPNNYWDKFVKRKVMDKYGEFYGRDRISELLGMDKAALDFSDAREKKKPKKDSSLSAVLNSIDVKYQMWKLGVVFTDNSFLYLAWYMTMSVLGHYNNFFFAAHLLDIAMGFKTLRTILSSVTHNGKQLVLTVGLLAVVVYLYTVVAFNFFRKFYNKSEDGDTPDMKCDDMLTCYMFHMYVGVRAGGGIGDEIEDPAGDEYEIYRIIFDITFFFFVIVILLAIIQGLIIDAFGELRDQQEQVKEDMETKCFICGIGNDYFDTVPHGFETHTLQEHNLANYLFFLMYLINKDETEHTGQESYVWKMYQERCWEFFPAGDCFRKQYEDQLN

Substance: Aβ(1-42): Unlabeled amyloid β peptide (1-42), synthesized and supplied by StabVida
- mitochondria membrane potential (TMRE ΔF/F0 before/after FCCP) versus control (HT-22 cells [1]): not altering the mitochondria membrane potential
- STIM1 co-immunoprecipitation with anti-Aβ(1-42) antibody (STIM1): formation of STIM1-Aβ complexes
- Tg-induced Ca2+ released from the stores, compared with cells treated only with Aβ(1-42) (RyR): three-fold higher
- inhibition of PDI activity (PDI): did not significantly inhibit
- GSH levels versus untreated cells (HT-22 cells [2]): not significantly different
- internalized Aβ(1-42) [3]: about 193 ± 21 nM
- inhibition of Ca2+ released from stores after Tg addition ([4]; 2 μM Aβ(1-42) 2 h plus 3 μM BTP2 15 min, mean ± SEM): 42 ± 6%
- inhibition of Ca2+ release from the stores after Tg addition, compared with control ([4]; 2 μM Aβ(1-42), 2 h, 37 °C, 2 μM Tg, Ca2+-free medium, ΔF/F0, mean ± SEM, n > 80 cells): 37 ± 7%
- inhibition of Ca2+ entry through the plasma membrane after Ca2+ addition, compared with control ([4]; 2 μM Aβ(1-42), 2 h, 37 °C, 3 mM Ca2+ after Tg, ΔF/F0, mean ± SEM, n > 80 cells): 32 ± 6%
- SOCE induced by Aβ(1-42) in the absence of Tg ([4]; HT-22 cells, no thapsigargin): did not detect
